Measurements reported in article PMC7933930, “Development of a small molecule that corrects misfolding and increases secretion of Z α1‐antitrypsin” (EMBO Molecular Medicine, 2021).

Target: T1, M α1‐antitrypsin (Homo sapiens, UniProt P01009)
T1 construct: purified from the plasma of M (wild‐type) and Z α1‐antitrypsin homozygotes; from tissue; host or cells: human plasma of M (wild-type) homozygotes
Assay: Association kinetics by intrinsic tryptophan fluorescence (stopped flow), M α1‐antitrypsin
Assay type: binding
Description: The shape of the curves and native mass spectrometry (not shown) are consistent with a single high‐affinity compound binding site. No binding of the fluorescent derivative to polymers of Z α1‐antitrypsin was observed, indicating conformational selectivity for the monomeric protein (Fig 1D). The rate of interaction of the compound with the target was monitored through changes in intrinsic tryptophan fluorescence (Dafforn et al, 1999); this property was used to determine the second‐order association rate constants for GSK716 binding to Z (4.1 × 10^4 M^−1 s^−1) and M α1‐antitrypsin (2.1 × 10^2 M^−1 s^−1; Fig 1E and F). […] Therefore, the selectivity of the compound for Z over M α1‐antitrypsin is dominated by the difference in the rate of association rather than dissociation.
Kinetic parameters of GSK716 binding to M, Z, S (Glu264Val) and Baghdad (Ala336Pro) (Haq et al, 2016) α1‐antitrypsin were measured by detecting intrinsic tryptophan fluorescence of the protein (excitation at 280 nm and detection of emission at 320 nm) on a stopped flow apparatus (Applied Photophysics) (Kim & Yu, 1996; Dafforn et al, 1999). […]

T1 sequence (P01009 25-418): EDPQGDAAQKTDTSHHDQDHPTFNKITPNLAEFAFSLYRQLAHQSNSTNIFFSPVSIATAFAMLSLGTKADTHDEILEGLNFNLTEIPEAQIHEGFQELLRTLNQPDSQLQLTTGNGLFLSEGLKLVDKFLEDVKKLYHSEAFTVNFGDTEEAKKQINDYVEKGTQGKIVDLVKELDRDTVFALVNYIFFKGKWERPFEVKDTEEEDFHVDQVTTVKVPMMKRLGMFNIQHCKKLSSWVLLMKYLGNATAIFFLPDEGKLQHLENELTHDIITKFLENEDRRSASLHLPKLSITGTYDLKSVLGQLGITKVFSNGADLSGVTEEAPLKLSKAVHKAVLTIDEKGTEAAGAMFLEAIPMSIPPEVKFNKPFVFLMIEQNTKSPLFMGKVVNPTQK

CCC[C@@H](NC(=O)c1cccc2c1CC(=O)N2)[C@@H](O)c1cccc(F)c1C [GSK716]
koff (calculated from association rate constant and affinity, read-out: first‐order dissociation rate constant): 1.6e-05 s⁻¹
kon (read-out: second‐order association rate constant): 210 M⁻¹ s⁻¹
